# Test results from ChEMBL document CHEMBL2150995, “Identification of an Adamantyl Azaquinolone JNK Selective Inhibitor” (ACS Med Chem Lett, 2012).
# Calls of active or inactive are those of the source. The rule behind the calls is not given here.
# What was measured:
# [1] = Solubility of the compound in acetonitrile/water at pH 6.5 by lyophilization solubility assay; type: physicochemical
# [2] = Mean residence time in C57 mouse at 30 mg/kg, po; type: ADME, organism-based; set-up: dose 30 mg/kg, route oral; settings: in vivo
# [3] = Tmax in C57 mouse at 30 mg/kg, po; type: ADME, organism-based; set-up: dose 30 mg/kg, route oral; settings: in vivo
# [4] = Plasma concentration in C57 mouse at 30 mg/kg, po measured at 8 hrs; type: ADME, organism-based; set-up: dose 30 mg/kg, route oral
# [5] = Drug uptake in C57 mouse kidney at 30 mg/kg, po measured at 8 hrs; type: ADME, organism-based; set-up: dose 30 mg/kg, route oral; settings: read-out: Drug uptake
# [6] = Drug uptake in C57 mouse liver at 30 mg/kg, po measured at 8 hrs; type: ADME, organism-based; set-up: dose 30 mg/kg, route oral; settings: read-out: Drug uptake
# [7] = Volume of distribution at steady state in C57 mouse at 5 mg/kg, iv; type: ADME, organism-based; set-up: dose 5 mg/kg, route intravenous; settings: in vivo, read-out: Vdss
# [8] = target: T1, Mitogen-activated protein kinase 8 (Homo sapiens, UniProt P45983); assay: Inhibition of JNK1 after 30 mins by TR-FRET assay
# [9] = target: T1, Mitogen-activated protein kinase 8; assay: Inhibition of JNK1-mediated c-jun phosphorylation in TNF-alpha stimulated human HK-2 cells after 30 mins by TR-FRET assay; type: cell-based
# [10] = Clearance in mouse liver microsomes; type: ADME, Microsome
# [11] = tested on: Rattus norvegicus; assay: In vivo inhibition of JNK-mediated c-jun phosphorylation in Sprague-Dawley rat kidney at 75 mg/kg, po bid administered in MBP formulation 23 hrs prior TNF-alpha challenge measured 1 hr post challenge by Western blot method; type: functional, organism-based; set-up: dose 75 mg/kg
# [12] = tested on: Rattus norvegicus; assay: In vivo inhibition of JNK-mediated c-jun phosphorylation in Sprague-Dawley rat assessed as phosphorylated c-jun level in kidney at 75 mg/kg, po administered as single dose in MBP formulation 7 hrs prior TNF-alpha challenge measured 1 hr post challenge by Western blot method relative to untreated control; type: functional
# [13] = Clearance in mouse hepatocytes; type: ADME, cell-based, Liver, Hepatocyte
# [14] = AUC in C57 mouse at 30 mg/kg, po; type: ADME, organism-based; set-up: dose 30 mg/kg, route oral; settings: plasma
# [15] = Cmax in C57 mouse at 30 mg/kg, po; type: ADME, organism-based; set-up: dose 30 mg/kg, route oral; settings: in vivo
# [16] = AUC (0 to 24 hrs) in C57 mouse at 5 mg/kg, iv; type: ADME, organism-based; set-up: time < 24 hr, dose 5 mg/kg, route intravenous; settings: plasma
# [17] = Clearance in C57 mouse at 5 mg/kg, iv; type: ADME, organism-based; set-up: dose 5 mg/kg, route intravenous; settings: in vivo
# [18] = Cmax in rat at 30 mg/kg, po administered as DMSO formulation; type: ADME, organism-based; set-up: dose 30 mg/kg, route oral; settings: in vivo
# [19] = AUC in rat at 30 mg/kg, po administered as DMSO formulation; type: ADME, organism-based; set-up: dose 30 mg/kg, route oral; settings: plasma
# [20] = Tmax in rat at 30 mg/kg, po administered as DMSO formulation; type: ADME, organism-based; set-up: dose 30 mg/kg, route oral; settings: in vivo
# [21] = Half life in rat at 30 mg/kg, po administered as DMSO formulation; type: ADME, organism-based; set-up: dose 30 mg/kg, route oral; settings: in vivo
# [22] = Cmax in rat at 75 mg/kg, po administered as MBP formulation; type: ADME, organism-based; set-up: dose 75 mg/kg, route oral; settings: in vivo
# [23] = AUC in rat at 75 mg/kg, po administered as MBP formulation; type: ADME, organism-based; set-up: dose 75 mg/kg, route oral; settings: plasma
# [24] = Tmax in rat at 75 mg/kg, po administered as MBP formulation; type: ADME, organism-based; set-up: dose 75 mg/kg, route oral; settings: in vivo
# [25] = Half life in rat at 75 mg/kg, po administered as MBP formulation; type: ADME, organism-based; set-up: dose 75 mg/kg, route oral; settings: in vivo
# [26] = Cmax in C57 mouse at 30 mg/kg, po administered as DMSO formulation; type: ADME, organism-based; set-up: dose 30 mg/kg, route oral; settings: in vivo
# [27] = AUC in C57 mouse at 30 mg/kg, po administered as DMSO formulation; type: ADME, organism-based; set-up: dose 30 mg/kg, route oral; settings: plasma
# [28] = Tmax in C57 mouse at 30 mg/kg, po administered as DMSO formulation; type: ADME, organism-based; set-up: dose 30 mg/kg, route oral; settings: in vivo
# [29] = Cmax in C57 mouse at 75 mg/kg, po administered as MBP formulation; type: ADME, organism-based; set-up: dose 75 mg/kg, route oral; settings: in vivo
# [30] = AUC in C57 mouse at 75 mg/kg, po administered as MBP formulation; type: ADME, organism-based; set-up: dose 75 mg/kg, route oral; settings: plasma
# [31] = Tmax in C57 mouse at 75 mg/kg, po administered as MBP formulation; type: ADME, organism-based; set-up: dose 75 mg/kg, route oral; settings: in vivo
# [32] = Half life in C57 mouse at 75 mg/kg, po administered as MBP formulation; type: ADME, organism-based; set-up: dose 75 mg/kg, route oral; settings: in vivo
# [33] = Clearance in rat at 5 mg/kg, iv administered as DMSO formulation; type: ADME, organism-based; set-up: dose 5 mg/kg, route intravenous; settings: in vivo
# [34] = Volume of distribution in rat at 5 mg/kg, iv administered as DMSO formulation; type: ADME, organism-based; set-up: dose 5 mg/kg, route intravenous; settings: in vivo
# [35] = Extrapolated AUC in rat at 5 mg/kg, iv administered as DMSO formulation; type: ADME, organism-based; set-up: dose 5 mg/kg, route intravenous; settings: in vivo
# [36] = Mean residence time in rat at 5 mg/kg, iv administered as DMSO formulation; type: ADME, organism-based; set-up: dose 5 mg/kg, route intravenous; settings: in vivo
# [37] = Half life in rat at 5 mg/kg, iv administered as DMSO formulation; type: ADME, organism-based; set-up: dose 5 mg/kg, route intravenous; settings: in vivo
# [38] = Clearance in C57 mouse at 5 mg/kg, iv administered as DMSO formulation; type: ADME, organism-based; set-up: dose 5 mg/kg, route intravenous; settings: in vivo
# [39] = Volume of distribution in C57 mouse at 5 mg/kg, iv administered as DMSO formulation; type: ADME, organism-based; set-up: dose 5 mg/kg, route intravenous; settings: in vivo
# [40] = Extrapolated AUC in C57 mouse at 5 mg/kg, iv administered as DMSO formulation; type: ADME, organism-based; set-up: dose 5 mg/kg, route intravenous; settings: in vivo
# [41] = Mean residence time in C57 mouse at 5 mg/kg, iv administered as DMSO formulation; type: ADME, organism-based; set-up: dose 5 mg/kg, route intravenous; settings: in vivo
# [42] = Half life in C57 mouse at 5 mg/kg, iv administered as DMSO formulation; type: ADME, organism-based; set-up: dose 5 mg/kg, route intravenous; settings: in vivo
# [43] = tested on: Rattus norvegicus; assay: In vivo inhibition of JNK-mediated c-jun phosphorylation in Sprague-Dawley rat kidney at 75 mg/kg, po tid administered in MBP formulation 23 hrs prior TNF-alpha challenge measured 1 hr post challenge by Western blot method; type: functional, organism-based; set-up: dose 75 mg/kg
# [44] = Solubility of the compound in MeOH solvate by lyophilization solubility assay; type: physicochemical
# T1 sequence (P45983 whole entry): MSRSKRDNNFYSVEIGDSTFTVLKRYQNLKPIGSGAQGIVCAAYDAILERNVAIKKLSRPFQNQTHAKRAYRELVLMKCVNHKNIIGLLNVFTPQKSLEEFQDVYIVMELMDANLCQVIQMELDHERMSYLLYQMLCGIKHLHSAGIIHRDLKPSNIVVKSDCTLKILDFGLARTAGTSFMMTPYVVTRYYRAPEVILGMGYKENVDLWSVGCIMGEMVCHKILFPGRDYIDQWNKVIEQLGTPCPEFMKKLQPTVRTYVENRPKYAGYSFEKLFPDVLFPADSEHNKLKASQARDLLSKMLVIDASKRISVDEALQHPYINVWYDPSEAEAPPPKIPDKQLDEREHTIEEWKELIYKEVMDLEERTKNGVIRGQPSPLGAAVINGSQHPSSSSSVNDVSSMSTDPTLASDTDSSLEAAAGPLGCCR
compound,measurement,setting,value
COC(=O)c1c(Cc2ccc(C(=O)N[C@@H]3[C@@H]4C[C@@H]5C[C@H]3C[C@@](N)(C5)C4)cc2)c(=O)c2cccnc2n1-c1ccccc1,solubility,[1],21.9 µg/mL
COC(=O)c1c(Cc2ccc(C(=O)N[C@H]3CC[C@H](O)CC3)cc2)c(=O)c2cccnc2n1-c1ccccc1,MRT,[2],3.45 h
same,Tmax,[3],0.25 h
same,concentration at 8 h,[4],810 nM
same,concentration at 8 h,[5],1890 nM
same,concentration at 8 h,[6],5570 nM
same,Vd,[7],0.73 L/kg
COC(=O)c1c(Cc2ccc(C(=O)N[C@H]3[C@@H]4C[C@@H]5C[C@H]3C[C@@](O)(C5)C4)cc2)c(=O)c2cccnc2n1-c1ccccc1,IC50,[8],47 nM
same,EC50,[9],8500 nM
same,CLhep predicted,[10],81 mL/min/kg
same,solubility,[1],25 µg/mL
COC(=O)c1c(Cc2ccc(C(=O)N[C@@H]3[C@@H]4C[C@@H]5C[C@H]3C[C@@](O)(C5)C4)cc2)c(=O)c2cccnc2n1-c1ccccc1,inhibition,[11],Active
same,inhibition in vivo at 75 mg/kg,[12],52%
same,IC50,[8],12 nM
same,EC50,[9],4100 nM
same,CLhep predicted,[10],59 mL/min/kg
same,CLhep predicted,[13],10.9 mL/min/kg
same,solubility,[1],14 µg/mL
same,AUC,[14],22400 ng·h/mL
same,Cmax,[15],13600 ng/mL
same,MRT,[2],2.38 h
same,Tmax,[3],0.25 h
same,concentration at 8 h,[4],560 nM
same,concentration at 8 h,[5],860 nM
same,concentration at 8 h,[6],2960 nM
same,AUC(0-t) at 24 h,[16],9890 ng·h/mL
same,clearance,[17],8.4 mL/min/kg
same,Vd,[7],0.3 L/kg
same,Cmax,[18],8030 ng/mL
same,AUC,[19],48300 ng·h/mL
same,Tmax,[20],4 h
same,half-life,[21],2.4 h
same,Cmax,[22],30100 ng/mL
same,AUC,[23],252000 ng·h/mL
same,Tmax,[24],4 h
same,half-life,[25],2 h
same,Cmax,[26],13600 ng/mL
same,AUC,[27],22400 ng·h/mL
same,Tmax,[28],0.25 h
same,Cmax,[29],18100 ng/mL
same,AUC,[30],49200 ng·h/mL
same,Tmax,[31],1 h
same,half-life,[32],1.62 h
same,clearance,[33],6.4 mL/min/kg
same,Vd,[34],0.61 L/kg
same,AUC,[35],16300 ng·h/mL
same,MRT,[36],1.8 h
same,half-life,[37],2.4 h
same,clearance,[38],8.4 mL/min/kg
same,Vd,[39],0.3 L/kg
same,AUC,[40],9890 ng·h/mL
same,MRT,[41],0.6 h
same,half-life,[42],0.6 h
same,inhibition,[43],Active
same,solubility,[44],14 µg/mL
COC(=O)c1c(Cc2ccc(C(=O)NC(C)(C)CO)cc2)c(=O)c2cccnc2n1-c1ccccc1,IC50,[8],45 nM
same,EC50,[9],9000 nM
same,CLhep predicted,[10],58 mL/min/kg
same,CLhep predicted,[13],52.9 mL/min/kg
same,solubility,[1],103 µg/mL
same,AUC,[14],7010 ng·h/mL
same,Cmax,[15],3840 ng/mL
same,MRT,[2],2.03 h
same,Tmax,[3],0.25 h
same,concentration at 8 h,[4],380 nM
same,concentration at 8 h,[5],620 nM
same,concentration at 8 h,[6],2490 nM
COC(=O)c1c(Cc2ccc(C(=O)NC3(CO)CC3)cc2)c(=O)c2cccnc2n1-c1ccccc1,IC50,[8],45 nM
same,EC50,[9],21000 nM
same,CLhep predicted,[10],45 mL/min/kg
same,CLhep predicted,[13],33.2 mL/min/kg
same,solubility,[1],138 µg/mL
same,AUC,[14],7480 ng·h/mL
same,Cmax,[15],4370 ng/mL
same,MRT,[2],1.73 h
same,Tmax,[3],0.25 h
same,concentration at 8 h,[4],380 nM
same,concentration at 8 h,[5],860 nM
same,concentration at 8 h,[6],4490 nM
COC(=O)c1c(Cc2ccc(C(=O)NCC(C)(C)O)cc2)c(=O)c2cccnc2n1-c1ccccc1,MRT,[2],3.14 h
same,Tmax,[3],0.25 h
same,concentration at 8 h,[4],740 nM
same,concentration at 8 h,[5],1420 nM
same,concentration at 8 h,[6],4000 nM
COC(=O)c1c(Cc2ccc(C(=O)NCCO)cc2)c(=O)c2ccc(Cl)cc2n1-c1ccccc1,IC50,[8],44 nM
same,EC50,[9],10100 nM
same,CLhep predicted,[10],67 mL/min/kg
same,CLhep predicted,[13],31.7 mL/min/kg
same,solubility,[1],4.6 µg/mL
COC(=O)c1c(Cc2ccc(C(=O)N[C@H](CO)C(C)(C)C)cc2)c(=O)c2cccnc2n1-c1ccccc1,MRT,[2],1.42 h
same,Tmax,[3],0.25 h
same,concentration at 8 h,[4],20 nM
same,concentration at 8 h,[5],30 nM
same,concentration at 8 h,[6],230 nM
